Among the test systems are 786-0; A498; ACHN; CCRF-CEM; DU-145; HCC 2998; HCT-15; HOP-62; K562; MCF7; MDA-MB-231; NCI-H23; PC-3; SK-MEL-2; SNB-19; TK-10; UACC-62; Hs-578T; KM12; NCI-H226.
Assay in all cases: DTP human tumour cell line panel, 48 h

Data on eleven compounds can be found in ChEMBL document CHEMBL1201862, “PubChem BioAssay data set” (2004).

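How tested: cells in 96-well plates exposed to compound for 48 hours at five concentrations. GI50 is the concentration that inhibits growth by half.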 Activity calls are given as the source filed them. Cut-off read from the data, not from the text of the source: active = GI50 up to about 1.1 µM and inactive = higher. Where a SMILES comes first, the peptide text is derived from it. The star is where a group is joined. Boc = CC(C)(C)OC(=O)*

Turning to `CNC(=O)CNC(=O)C(NC(=O)CNC(=O)C1CCCN1C(=O)C(C)NC(=O)C(NC(=O)OC(C)(C)C)C(C)C)C(C)C` (centres undefined) (Boc-VAPGVG-NHMe; configuration not given here), the GI50 in the assay with 786-0, in the assay on A498, with ACHN, in the assay on CCRF-CEM, with DU-145 and in the assay on HCC 2998 was > 100 µM (inactive) in each case. In addition, the GI50 in the assay on HCT-15 was more than 100 µM; in the assay on HOP-62, > 100 µM (inactive); with K562, > 100 µM (inactive); with MCF7 it was > 100 µM (inactive); in the assay with MDA-MB-231, > 100 µM (inactive); in the assay on NCI-H23, > 100 µM (inactive). The GI50 in the assay with PC-3, in the assay with SK-MEL-2, with SNB-19, in the assay on TK-10 and in the assay with UACC-62 was > 100 µM (inactive) each time.
In the case of `CNC(=O)CNC(=O)C(NC(=O)CNC(=O)C1CCCN1C(=O)C(C)NC(=O)C(NC(C)=O)C(C)C)C(C)C` (centres undefined) (Ac-VAPGVG-NHMe; configuration not given here), the GI50 in the assay on 786-0, in the assay on A498, in the assay on ACHN, in the assay with CCRF-CEM, with DU-145 and in the assay on HCC 2998 was > 100 µM (inactive) each time. Moreover, the GI50 in the assay on HCT-15 was more than 100 µM; with HOP-62, > 100 µM (inactive); in the assay with K562 it was > 100 µM (inactive); in the assay with MCF7 it was > 100 µM (inactive); in the assay with MDA-MB-231 it was > 100 µM (inactive); in the assay with NCI-H23, > 100 µM (inactive). In addition, the GI50 with PC-3, in the assay with SK-MEL-2, with SNB-19, with TK-10 and in the assay with UACC-62 was > 100 µM (inactive) throughout.
Regarding `Cc1ccc(-c2nc3n(c2/C=N\N=C(N)N)CCS3)cc1`, the GI50 in the assay on 786-0 was 15.8 µM (inactive); in the assay with A498, 16.8 µM (inactive); with ACHN, 15 µM (inactive); in the assay with CCRF-CEM it was 22.1 µM (inactive); in the assay with DU-145 it was 13.8 µM (inactive); with HCC 2998, 11.6 µM (inactive). The GI50 in the assay on HCT-15 was 17.5 µM; in the assay on HOP-62, 15 µM (inactive); in the assay with Hs-578T, 18.1 µM (inactive); in the assay on K562, 19.8 µM (inactive); with KM12 it was 15 µM (inactive); with MDA-MB-231, 16.3 µM (inactive). Also, the GI50 was 15.8 µM (inactive) in the assay on NCI-H23; 15 µM (inactive) in the assay with PC-3; 12.9 µM (inactive) with SK-MEL-2; 15.1 µM (inactive) in the assay with SNB-19; 19 µM (inactive) in the assay on TK-10; 18.1 µM (inactive) in the assay on UACC-62.
As for `CC1(C)CS(=O)(=O)CC(C)(C)C(=N/N)/C1=N\N`, the GI50 in the assay on 786-0 is > 100 µM (inactive); in the assay on A498 it was > 100 µM (inactive); in the assay on ACHN, > 100 µM (inactive); in the assay on DU-145 it was > 100 µM (inactive); in the assay on HCC 2998, > 100 µM (inactive); in the assay with HCT-15, more than 100 µM. The GI50 in the assay on HOP-62, with Hs-578T, in the assay with K562, in the assay with KM12, in the assay on MCF7 and in the assay on NCI-H23 was > 100 µM (inactive) throughout. Further, the GI50 in the assay with PC-3, in the assay on SK-MEL-2, in the assay on SNB-19, in the assay with TK-10 and with UACC-62 was > 100 µM (inactive) throughout.
For `CC(C)CC(Nc1c(O)ccc2ccccc12)C(=O)O` (centres undefined), the GI50 in the assay on 786-0 is 59.3 µM (inactive); in the assay on A498, 23.3 µM (inactive); in the assay on ACHN it was 22.9 µM (inactive); with CCRF-CEM it was 0.959 µM (active); in the assay on DU-145, 19.2 µM (inactive); in the assay with HCC 2998 it was 25.2 µM (inactive). The GI50 in the assay with HCT-15 is 36.9 µM; with HOP-62, 83.9 µM (inactive); with Hs-578T, 21.6 µM (inactive); in the assay on K562 it was 58.7 µM (inactive); in the assay with KM12, 30.6 µM (inactive); with MCF7, 41.2 µM (inactive). Besides, the GI50 in the assay with MDA-MB-231 was 25.4 µM (inactive); in the assay with NCI-H226, 20 µM (inactive); with NCI-H23, 19.5 µM (inactive); in the assay on SK-MEL-2, 17.1 µM (inactive); in the assay with SNB-19, 37.6 µM (inactive); with TK-10, 39.9 µM (inactive). Also, the GI50 in the assay with UACC-62 is 23.8 µM (inactive).
Consider `CC(C)=CC[C@H]1C[C@]2(CC=C(C)C)C(=O)[C@@](CC=C(C)C)(C(=O)C(C(=O)c3ccccc3)=C2O)C1(C)C` [6-EPI-CLUSIANONE], for which the GI50 with 786-0 was 5.51 µM (inactive); in the assay on A498 it was 9.46 µM (inactive); in the assay on ACHN it was 4.88 µM (inactive); with HCC 2998, 3.85 µM (inactive); in the assay on HCT-15, 5.04 µM; in the assay on HOP-62, 6.87 µM (inactive). Further, the GI50 in the assay on Hs-578T is 14.3 µM (inactive); with K562, 3.87 µM (inactive); with KM12, 3.88 µM (inactive); in the assay with MCF7, 4.59 µM (inactive); with MDA-MB-231, 6.01 µM (inactive); in the assay with NCI-H226, 14.1 µM (inactive). Besides, the GI50 with NCI-H23 is 7.67 µM (inactive); in the assay on PC-3, 4.78 µM (inactive); with SK-MEL-2 it was 2.67 µM (inactive); in the assay on SNB-19, 5.21 µM (inactive); in the assay on TK-10 it was 5.15 µM (inactive); in the assay on UACC-62 it was 3.44 µM (inactive).
Consider `O=C1CC(C(OCc2ccccc2)C(OCc2ccccc2)C(OCc2ccccc2)C(COCc2ccccc2)OCc2ccccc2)CC(=O)N1` (centres undefined), for which the GI50 in the assay with 786-0, in the assay with A498, with ACHN, in the assay with CCRF-CEM, in the assay on DU-145 and in the assay on HCC 2998 was > 100 µM (inactive) in each case. For the same compound, the 50% growth inhibitory concentration (GI50) in the assay with HCT-15 was more than 100 µM; with HOP-62, > 100 µM (inactive); in the assay with Hs-578T it was > 100 µM (inactive); in the assay with K562, > 100 µM (inactive); in the assay on NCI-H23 it was > 100 µM (inactive); in the assay with PC-3, > 100 µM (inactive). The GI50 with SNB-19 and with TK-10 was > 100 µM (inactive) throughout.
Consider `C=C1C(=O)O[C@@H]2C(=O)[C@@H](C)CCC/C(C)=C/CC[C@@]3(C)O[C@@H]3C[C@@H]12`, for which the GI50 is 21.3 µM (inactive) with 786-0; > 100 µM (inactive) with A498; 36.9 µM (inactive) in the assay on ACHN; 11.8 µM (inactive) in the assay with CCRF-CEM; 75.2 µM (inactive) in the assay with DU-145; > 100 µM (inactive) with HCC 2998. In addition, the GI50 was 20.2 µM in the assay on HCT-15; > 100 µM (inactive) with HOP-62; 16.4 µM (inactive) with K562; 29.8 µM (inactive) in the assay on KM12; 36.3 µM (inactive) in the assay on MCF7; 53.8 µM (inactive) with MDA-MB-231. In addition, the GI50 with NCI-H226 was > 100 µM (inactive); with NCI-H23, > 100 µM (inactive); with PC-3, 47 µM (inactive); in the assay on SK-MEL-2 it was > 100 µM (inactive); with SNB-19, > 100 µM (inactive); in the assay with TK-10 it was 27.7 µM (inactive). Also, the GI50 in the assay with UACC-62 is 41.7 µM (inactive).
Consider `NC1CC(=O)c2cc(Br)sc21` (centres undefined), for which the GI50 in the assay with 786-0, in the assay on A498, in the assay with ACHN, with CCRF-CEM, in the assay on DU-145 and with HCC 2998 was > 100 µM (inactive) each time. Further, the GI50 is more than 100 µM in the assay with HCT-15; > 100 µM (inactive) with HOP-62; > 100 µM (inactive) in the assay on K562; > 100 µM (inactive) in the assay with KM12; > 100 µM (inactive) with MCF7; > 100 µM (inactive) in the assay on MDA-MB-231. For the same compound, the GI50 with PC-3, with SK-MEL-2, in the assay with SNB-19, in the assay with TK-10 and in the assay on UACC-62 was > 100 µM (inactive) in each case.
`O=C1NC(Nc2cccc(Cl)c2)=N/C1=C\c1ccc(Cl)c(Cl)c1`: the GI50 in the assay with 786-0 was 3.76 µM (inactive); in the assay with A498, 4.37 µM (inactive); in the assay with ACHN, 5.05 µM (inactive); in the assay on CCRF-CEM, 3.45 µM (inactive); in the assay on DU-145 it was 7.52 µM (inactive); with HCC 2998 it was 2.28 µM (inactive). Further, the 50% growth inhibitory concentration (GI50) in the assay with HCT-15 is 5.28 µM; with HOP-62 it was 8.79 µM (inactive); in the assay on Hs-578T, 3.04 µM (inactive); with K562 it was 3.33 µM (inactive); in the assay on KM12, 3.37 µM (inactive); in the assay on MCF7, 3.01 µM (inactive). Also, the GI50 with NCI-H226 is 3.44 µM (inactive); in the assay with NCI-H23, 3.44 µM (inactive); in the assay with PC-3 it was 3.66 µM (inactive); with SK-MEL-2, 2.44 µM (inactive); with SNB-19, 7.74 µM (inactive); in the assay with TK-10 it was 9.35 µM (inactive). Also, the GI50 with UACC-62 was 10.1 µM (inactive).
On to `COc1ccc(/C=C2/S/C(=N\c3ccccc3)N(NC(=O)Cc3ccccc3)C2=O)c(OC)c1`, for which the GI50 in the assay with 786-0 is > 100 µM (inactive); in the assay with A498, > 100 µM (inactive); with ACHN, > 100 µM (inactive); in the assay with CCRF-CEM it was 82.6 µM (inactive); in the assay on DU-145, > 100 µM (inactive); with HCC 2998, 82.6 µM (inactive). Further, the concentration for 50% growth inhibition (GI50) in the assay on HCT-15 was more than 100 µM; in the assay with HOP-62, > 100 µM (inactive); in the assay on Hs-578T, > 100 µM (inactive); in the assay on K562, 89.9 µM (inactive); with KM12, > 100 µM (inactive); with MCF7 it was > 100 µM (inactive). Further, the GI50 in the assay on MDA-MB-231 was 69 µM (inactive); in the assay on NCI-H226, > 100 µM (inactive); with NCI-H23 it was > 100 µM (inactive); in the assay with SK-MEL-2 it was > 100 µM (inactive); in the assay on SNB-19 it was > 100 µM (inactive); with TK-10, > 100 µM (inactive). Further, in the assay on UACC-62, the GI50 was > 100 µM (inactive).
